Marks after values point to notes of the source that are not given here.
Experiments:
Assay type in all cases: in vivo
[1] = tested on: Stagonospora nodorum (also known as Septoria nodorum); assay: Test B: preventive spray on wheat seedlings, Stagonospora nodorum (wheat glume blotch), visual disease rating
Excerpt: (§1) General protocol for preparing test suspensions for Tests A-E: the test compounds were first dissolved in acetone in an amount equal to 3% of the final volume and then suspended at the desired concentration (in ppm) in acetone and purified water (50/50 mix by volume) containing 250 ppm of the surfactant Trem® 014 (polyhydric alcohol esters). The resulting test suspensions were then used in Tests A-E. Compounds were sprayed with either a 40 ppm or 10 ppm (*) test suspension to the point of run-off on the test plants which is the equivalent of a rate of 160 g ai/ha or 40 g ai/ha, respectively.
The test suspension was sprayed to the point of run-off on wheat seedlings. The following day the seedlings were inoculated with a spore suspension of Stagonospora nodorum (also known as Septoria nodorum; the causal agent of wheat glume blotch) and incubated in a saturated atmosphere at 20° C. for 48 h, and then moved to a growth chamber at 20° C. for 6 days, after which time visual disease ratings were made.
(§2) Results for Tests A-E are given in Table A. In the Table, a rating of 100 indicates 100% disease control and a rating of 0 indicates no disease control (relative to the controls). A dash (-) indicates no test results.

Septoria tritici = assay: Test C: preventive spray on wheat seedlings, Septoria tritici (wheat leaf blotch), visual disease rating
Excerpt: as §1
The test suspension was sprayed to the point of run-off on wheat seedlings. The following day the seedlings were inoculated with a spore suspension of Septoria tritici (the causal agent of wheat leaf blotch) and incubated in a saturated atmosphere at 24° C. for 48 h, and then moved to a growth chamber at 20° C. for 21 days, after which time visual disease ratings were made.
as §2

[2] = tested on: Puccinia recondite f. sp. tritici; assay: Test D: preventive spray on wheat seedlings, Puccinia recondite f. sp. tritici (wheat leaf rust), visual disease rating
Excerpt: as §1
The test suspension was sprayed to the point of run-off on wheat seedlings. The following day the seedlings were inoculated with a spore suspension of Puccinia recondite f. sp. tritici; (the causal agent of wheat leaf rust) and incubated in a saturated atmosphere at 20° C. for 24 h, and then moved to a growth chamber at 20° C. for 6 days, after which time visual disease ratings were made.
as §2

[3] = tested on: Erysiphe graminis f. sp. tritici; assay: Test E: preventive spray on wheat seedlings, Erysiphe graminis f. sp. tritici (wheat powdery mildew), visual disease rating
Excerpt: as §1
The test suspension was sprayed to the point of run-off on wheat seedlings. The following day the seedlings were inoculated with a spore dust of Erysiphe graminis f. sp. tritici, (the causal agent of wheat powdery mildew) and incubated in a growth chamber at 20° C. for 8 days, after which time visual disease ratings were made.
as §2

[4] = 100 = 100% disease control, 0 = no control, unmarked values
[5] = values marked with asterisk (*), meaning not given

SMILES | Test B disease control rating [1, 4] [%] | Test C disease control rating (Septoria tritici; [4]) [%] | Test D disease control rating [2, 4] [%] | Test E disease control rating [3, 4] [%] | Test B disease control rating [1, 5] | Test C disease control rating (Septoria tritici; [5]) | Test D disease control rating [2, 5] | Test E disease control rating [3, 5]
CCOC(=O)C1(C)CC(c2ccc(-c3ccccc3NC(=O)c3ncccc3C(F)(F)F)cn2)=NO1 (racemic) [compound 144] | 0 | 81 | 68 | 0 |  |  |  | 
CCOC(=O)C1CC(c2ccc(-c3ccccc3NC(=O)c3ncccc3C(F)(F)F)cn2)=NO1 (racemic) [compound 145] | 0 | 26 | 0 | 0 |  |  |  | 
CC1(C(=O)O)CC(c2ccc(-c3ccccc3NC(=O)c3ncccc3C(F)(F)F)cn2)=NO1 (racemic) [compound 146] | 0 | 1 | 0 | 0 |  |  |  | 
O=C(NCCc1ncc(-n2ccc(C(F)(F)F)n2)cn1)c1ccccc1C(F)(F)F [Compound 177] |  | 91 | 0 | 79 |  |  |  | 
Cc1ccn(-c2cnc(CCNC(=O)c3ncccc3C(F)(F)F)nc2)n1 [Compound 178] |  |  |  |  | 3* % | 0* % | 0* % | 0* %
O=C(NCCc1ncc(-n2ccc(Br)n2)cn1)c1ncccc1C(F)(F)F [Compound 179] | 0 |  |  |  |  | 5* % | 0* % | 0* %
O=C(NCCc1ncc(-n2cc(Br)cn2)cn1)c1ncccc1C(F)(F)F [Compound 180] | 0 |  |  |  |  | 2* % | 0* % | 0* %
O=C(NCCc1ncc(-n2ccc(Cl)n2)cn1)c1ncccc1C(F)(F)F [Compound 181] |  |  |  |  | 64* % | 20* % | 9* % | 0* %
Cc1cnn(-c2cnc(CCNC(=O)c3ncccc3C(F)(F)F)nc2)c1 [Compound 182] | 0 |  |  |  |  | 9* % | 0* % | 0* %
O=C(Nc1ccccc1-c1ccc(-n2cccn2)nc1)c1ncccc1C(F)(F)F [compound 12] | 100 | 100 | 99 | 98 |  |  |  | 
N#Cc1cc(-c2ccccc2NC(=O)c2ncccc2C(F)(F)F)cnc1-n1ccc(C(F)(F)F)n1 [compound 105] |  |  | 100 | 81 |  |  |  | 
Cn1cc(C(=O)Nc2ccccc2-c2cnc(-n3ccc(C(F)(F)F)n3)c(C#N)c2)c(C(F)F)n1 [compound 106] |  |  | 100 | 98 |  |  |  | 
Cc1nc(C(F)(F)F)c(C(=O)Nc2ccccc2-c2cnc(-n3ccc(C(F)(F)F)n3)c(C#N)c2)s1 [compound 107] |  |  | 99 | 43 |  |  |  | 
N#Cc1cc(-c2ccccc2NC(=O)c2nccnc2Cl)cnc1-n1ccc(C(F)(F)F)n1 [compound 108] |  |  | 96 | 87 |  |  |  | 
CCOC(=O)C1(C)CC(c2ccc(-c3ccccc3NC(=O)c3cn(C)nc3C(F)F)cn2)=NO1 (centres unmarked) [compound 109] |  | 66 | 74 | 0 |  |  |  | 
CCOC(=O)C1CC(c2ccc(-c3ccccc3NC(=O)c3cn(C)nc3C(F)F)cn2)=NO1 (centres unmarked) [compound 110] |  | 22 | 68 | 0 |  |  |  | 

SMILES | Test B disease control rating [1, 4] [%] | Test C disease control rating (Septoria tritici; [4]) [%] | Test D disease control rating [2, 4] [%] | Test E disease control rating [3, 4] [%] | Test B disease control rating [1, 5] | Test C disease control rating (Septoria tritici; [5]) | Test D disease control rating [2, 5] | Test E disease control rating [3, 5]
O=C(Nc1ccccc1-c1cnc(-n2ccc(C(F)(F)F)n2)c(Cl)c1)c1cccs1 [compound 111] |  |  |  |  |  | 63* % | 84* % | 0* %
O=C(Nc1ccccc1-c1cnc(-n2ccc(C(F)(F)F)n2)c(Cl)c1)c1ccsc1 [compound 112] |  |  |  |  |  | 77* % | 0* % | 0* %
Cc1cc(C)c(C(=O)Nc2ccccc2-c2cnc(-n3ccc(C(F)(F)F)n3)c(Cl)c2)s1 [compound 116] |  |  |  |  |  | 99* % | 99* % | 64* %
O=C(Nc1ccccc1-c1cnc(-n2ccc(C(F)(F)F)n2)c(Cl)c1)c1occc1Br [compound 117] |  |  |  |  |  | 99* % | 99* % | 64* %
Cc1occc1C(=O)Nc1ccccc1-c1cnc(-n2ccc(C(F)(F)F)n2)c(Cl)c1 [compound 118] |  |  |  |  |  | 42* % | 68* % | 0* %
O=C(Nc1ccccc1-c1cnc(-n2ccc(C(F)(F)F)n2)c(Cl)c1)c1ccsc1Cl [compound 120] |  |  |  |  |  | 98* % | 100* % | 0* %
Cc1oncc1C(=O)Nc1ccccc1-c1cnc(-n2ccc(C(F)(F)F)n2)c(Cl)c1 [compound 128] |  |  |  |  |  | 42* % | 67* % | 13* %
Cn1ncnc1C(=O)Nc1ccccc1-c1cnc(-n2ccc(C(F)(F)F)n2)c(Cl)c1 [compound 129] |  |  |  |  |  | 88* % | 17* % | 0* %
Cc1sccc1C(=O)Nc1ccccc1-c1cnc(-n2ccc(C(F)(F)F)n2)c(Cl)c1 [compound 138] |  |  |  |  |  | 99* % | 100* % | 64* %
O=C(Nc1ccccc1-c1cnc(-n2ccc(C(F)(F)F)n2)c(Cl)c1)c1ccsc1Br [compound 139] |  |  |  |  |  | 98* % | 100* % | 40* %
CSc1ccsc1C(=O)Nc1ccccc1-c1cnc(-n2ccc(C(F)(F)F)n2)c(Cl)c1 [compound 141] |  |  |  |  |  | 76* % | 97* % | 0* %
CSc1sccc1C(=O)Nc1ccccc1-c1cnc(-n2ccc(C(F)(F)F)n2)c(Cl)c1 [compound 142] |  |  |  |  |  | 88* % | 97* % | 0* %
N#Cc1cc(-c2ccccc2NC(=O)c2sccc2I)cnc1-n1ccc(C(F)(F)F)n1 [compound 143] |  |  |  |  |  | 100* % | 100* % | 64* %
Cn1cc(C(=O)Nc2ccccc2-c2cnc(-n3cnc(C(F)(F)F)c3)c(F)c2)c(C(F)F)n1 [compound 153] |  |  |  |  |  | 99* % | 99* % | 40* %
Cc1ncsc1C(=O)Nc1ccccc1-c1cnc(-n2ccc(C(F)(F)F)n2)c(Cl)c1 [compound 164] |  |  |  |  |  | 96* % | 91* % | 69* %
